What all share (assay): level (log10 ratio to DMSO vehicle control); higher = higher biomarker level / cell amount than vehicle control
Holding throughout (conditions): in DMSO

Compound in one assay: O=C(O)C(F)(F)C(F)(F)C(F)(F)C(=O)O [Hexafluoroglutaric acid]
As to the method: (§1)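 BioMAP Diversity Plus panel of 12 human primary cell co-culture systems (3C, 4H, LPS, SAg, BT, BF4T, BE3C, CASM3C, HDF3CGF, KF3CT, MyoF, Mphg). Compounds were added 1 h before stimulation and left for 24 h (MyoF 48 h; BT 72 h for soluble read-outs or 6 d for IgG). Biomarkers were read by ELISA, cytotoxicity by SRB, PBMC viability and proliferation by Alamar Blue. Each well value was divided by the mean of 8 DMSO control wells on the same plate and log10 transformed; duplicate blinded samples were tested at 4 concentrations.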

Compound in assay [1]: O=S(=O)(O)C(F)(F)C(F)(F)C(F)(F)C(F)(F)F [Perfluorobutanesulfonic acid]
As to the method:
as §1

Compound in assay [2]: C=C(C)C(=O)OCC(F)(F)C(F)(F)C(F)(F)C(F)(F)C(F)(F)C(F)(F)C(F)(F)F
As for the experimental part: as §1

± gives the standard deviation of the averaged measurements.

The values below come from the supplement of paper PMC10331698.

For SAg:CD62E/E-Selectin, the “level (log10)” value with Hexafluoroglutaric acid (6700 nM) is -0.004 ± 0.033; with Hexafluoroglutaric acid (20000 nM) it was -0.008 ± 0.052; with Hexafluoroglutaric acid (60000 nM), -0.0025 ± 0.0078; in assay [1] (6700 nM) it was -0.0045 ± 0.005; in assay [1] (20000 nM) it was -0.008 ± 0.0085; in assay [1] (60000 nM) it was -0.001 ± 0.024. For the same test system, the “level (log10)” value in assay [2] (6700 nM) was -0.001 ± 0.024; in assay [2] (20000 nM), 0.0155 ± 0.011.
For the test system 4H:SRB, the “level (log10)” value is -0.0005 ± 0.0092 with Hexafluoroglutaric acid (6700 nM); 0.003 ± 0.016 with Hexafluoroglutaric acid (20000 nM); 0.011 ± 0.034 with Hexafluoroglutaric acid (60000 nM); 0.0005 ± 0.0064 in assay [1] (6700 nM); 0.002 ± 0.0028 in assay [1] (20000 nM); 0 ± 0.0099 in assay [1] (60000 nM). Further, the “level (log10)” value was 0.0005 ± 0.029 in assay [2] (6700 nM) and -0.0035 ± 0.018 in assay [2] (20000 nM).
Take SAg:CD69: the “level (log10)” value with Hexafluoroglutaric acid (6700 nM) was -0.0125 ± 0.0064; with Hexafluoroglutaric acid (20000 nM) it was -0.016 ± 0.013; with Hexafluoroglutaric acid (60000 nM), 0.005 ± 0.0042; in assay [1] (6700 nM), -0.008 ± 0.0028; in assay [1] (20000 nM), -0.013 ± 0.017; in assay [1] (60000 nM), -0.043 ± 0.037. The “level (log10)” value is -0.01 ± 0.05 in assay [2] (6700 nM) and -0.001 ± 0.045 in assay [2] (20000 nM).
For the test system SAg:CD38, the “level (log10)” value is -0.002 ± 0.0071 in the assay with Hexafluoroglutaric acid (6700 nM); -0.0075 ± 0.00071 with Hexafluoroglutaric acid (20000 nM); 0.0075 ± 0.021 in the assay with Hexafluoroglutaric acid (60000 nM); -0.005 ± 0.0028 in assay [1] (6700 nM); -0.0085 ± 0.0064 in assay [1] (20000 nM); -0.0155 ± 0.00071 in assay [1] (60000 nM). Also, the “level (log10)” value in assay [2] (6700 nM) was -0.0195 ± 0.00071; in assay [2] (20000 nM) it was 0.011 ± 0.0071.
BT:sIL-2: the “level (log10)” value is -0.006 ± 0.11 with Hexafluoroglutaric acid (6700 nM); 0.0205 ± 0.039 in the assay with Hexafluoroglutaric acid (20000 nM); 0.061 ± 0.013 with Hexafluoroglutaric acid (60000 nM); -0.0155 ± 0.079 in assay [1] (6700 nM); -0.059 ± 0.044 in assay [1] (20000 nM); -0.025 ± 0.04 in assay [1] (60000 nM). The “level (log10)” value in assay [2] (6700 nM) is 0.012 ± 0.0099; in assay [2] (20000 nM), 0.0075 ± 0.047.
With SAg:SRB, the “level (log10)” value is -0.0055 ± 0.00071 with Hexafluoroglutaric acid (6700 nM); -0.0105 ± 0.016 in the assay with Hexafluoroglutaric acid (20000 nM); -0.0035 ± 0.016 with Hexafluoroglutaric acid (60000 nM); 0.0005 ± 0.0092 in assay [1] (6700 nM); -0.0085 ± 0.0092 in assay [1] (20000 nM); -0.0055 ± 0.013 in assay [1] (60000 nM). The entries for the “level (log10)” value in assay [2] (6700 nM) and in assay [2] (20000 nM) were -0.001 ± 0.0099 and -0.0095 ± 0.021, respectively.
In the case of BF4T:tPA, the “level (log10)” value in the assay with Hexafluoroglutaric acid (6700 nM) was -0.0195 ± 0.018; in the assay with Hexafluoroglutaric acid (20000 nM) it was -0.0205 ± 0.028; with Hexafluoroglutaric acid (60000 nM) it was -0.0045 ± 0.011; in assay [1] (6700 nM) it was -0.0115 ± 0.021; in assay [1] (20000 nM) it was 0.0025 ± 0.0092; in assay [1] (60000 nM) it was 0.0115 ± 0.018. In addition, the “level (log10)” value is 0.0085 ± 0.0035 in assay [2] (6700 nM) and -0.0115 ± 0.021 in assay [2] (20000 nM).
As for 3C:CD87/uPAR, the “level (log10)” value was -0.0075 ± 0.018 with Hexafluoroglutaric acid (6700 nM); -0.0105 ± 0.028 in the assay with Hexafluoroglutaric acid (20000 nM); 0.0025 ± 0.013 in the assay with Hexafluoroglutaric acid (60000 nM); -0.007 ± 0.027 in assay [1] (6700 nM); -0.0075 ± 0.00071 in assay [1] (20000 nM); -0.0235 ± 0.022 in assay [1] (60000 nM). The results for the “level (log10)” value in assay [2] (6700 nM) and in assay [2] (20000 nM) were -0.0235 ± 0.054 and -0.015 ± 0.048, respectively.
Take BF4T:uPA: the “level (log10)” value in the assay with Hexafluoroglutaric acid (6700 nM) was -0.009 ± 0.016; in the assay with Hexafluoroglutaric acid (20000 nM) it was -0.0015 ± 0.015; in the assay with Hexafluoroglutaric acid (60000 nM), -0.003 ± 0.0028; in assay [1] (6700 nM) it was -0.026 ± 0.02; in assay [1] (20000 nM), 0.006 ± 0.0014; in assay [1] (60000 nM) it was -0.014 ± 0.027. Besides, the “level (log10)” value in assay [2] (6700 nM) was 0.0015 ± 0.032; in assay [2] (20000 nM) it was -0.0055 ± 0.005.
On to BF4T:MMP-3, for which the “level (log10)” value was -0.0045 ± 0.0092 in the assay with Hexafluoroglutaric acid (6700 nM); -0.0125 ± 0.035 with Hexafluoroglutaric acid (20000 nM); 0.0175 ± 0.0021 in the assay with Hexafluoroglutaric acid (60000 nM); 0.014 ± 0.0014 in assay [1] (6700 nM); 0.001 in assay [1] (20000 nM); 0.042 ± 0.033 in assay [1] (60000 nM). The figures for the “level (log10)” value in assay [2] (6700 nM) and in assay [2] (20000 nM) were 0.002 ± 0.023 and -0.007 ± 0.018, respectively.
Regarding BT:PBMC Cytotoxicity, the “level (log10)” value is 0.019 ± 0.027 with Hexafluoroglutaric acid (6700 nM); -0.017 ± 0.0071 with Hexafluoroglutaric acid (20000 nM); 0.005 ± 0.014 with Hexafluoroglutaric acid (60000 nM); 0.03 ± 0.044 in assay [1] (6700 nM); 0.039 ± 0.027 in assay [1] (20000 nM); 0.057 ± 0.0057 in assay [1] (60000 nM). For the same test system, the results for the “level (log10)” value in assay [2] (6700 nM) and in assay [2] (20000 nM) were 0.0145 ± 0.025 and 0.0105 ± 0.029, respectively.
Consider BT:sIL-17F, for which the “level (log10)” value is 0.046 ± 0.071 with Hexafluoroglutaric acid (6700 nM); 0.0335 ± 0.05 with Hexafluoroglutaric acid (20000 nM); -0.004 ± 0.0085 with Hexafluoroglutaric acid (60000 nM); 0.008 ± 0.0057 in assay [1] (6700 nM); 0.0145 ± 0.04 in assay [1] (20000 nM); -0.0225 ± 0.0064 in assay [1] (60000 nM). Moreover, the figures for the “level (log10)” value in assay [2] (6700 nM) and in assay [2] (20000 nM) were 0.0315 ± 0.0035 and -0.0245 ± 0.063, respectively.
Take BF4T:CCL2/MCP-1: the “level (log10)” value in the assay with Hexafluoroglutaric acid (6700 nM) is 0.0015 ± 0.043; in the assay with Hexafluoroglutaric acid (20000 nM), -0.0225 ± 0.005; in the assay with Hexafluoroglutaric acid (60000 nM), 0.0085 ± 0.032; in assay [1] (6700 nM) it was 0.028 ± 0.0014; in assay [1] (20000 nM), 0.026 ± 0.024; in assay [1] (60000 nM), 0.033 ± 0.018. Besides, the “level (log10)” value in assay [2] (6700 nM) is -0.008 ± 0.035; in assay [2] (20000 nM) it was 0.0195 ± 0.013.
As for BF4T:CD90, the “level (log10)” value with Hexafluoroglutaric acid (6700 nM) was 0.0025 ± 0.0092; with Hexafluoroglutaric acid (20000 nM) it was 0.009 ± 0.0042; with Hexafluoroglutaric acid (60000 nM), 0.0175 ± 0.005; in assay [1] (6700 nM), -0.007 ± 0.0042; in assay [1] (20000 nM), -0.008 ± 0.021; in assay [1] (60000 nM), -0.015 ± 0.011. In addition, the “level (log10)” value was -0.0135 ± 0.0064 in assay [2] (6700 nM) and -0.011 ± 0.0085 in assay [2] (20000 nM).
LPS:IL-1alpha: the “level (log10)” value was -0.023 ± 0.02 with Hexafluoroglutaric acid (6700 nM); -0.0325 ± 0.0064 with Hexafluoroglutaric acid (20000 nM); 0.002 ± 0.037 with Hexafluoroglutaric acid (60000 nM); -0.0445 ± 0.067 in assay [1] (6700 nM); -0.0235 ± 0.013 in assay [1] (20000 nM); -0.0265 ± 0.05 in assay [1] (60000 nM). Besides, the “level (log10)” value in assay [2] (6700 nM) amounted to 0.016 ± 0.048; in assay [2] (20000 nM) it was 0.044 ± 0.016.
With LPS:sPGE2, the “level (log10)” value with Hexafluoroglutaric acid (6700 nM) is -0.0265 ± 0.028; in the assay with Hexafluoroglutaric acid (20000 nM) it was -0.039 ± 0.031; in the assay with Hexafluoroglutaric acid (60000 nM), -0.0185 ± 0.069; in assay [1] (6700 nM), 0.0595 ± 0.011; in assay [1] (20000 nM) it was 0.041 ± 0.051; in assay [1] (60000 nM) it was 0.0355 ± 0.043. Further, the “level (log10)” value was -0.0035 ± 0.05 in assay [2] (6700 nM) and -0.031 ± 0.034 in assay [2] (20000 nM).
In the case of BF4T:PAI-I, the “level (log10)” value with Hexafluoroglutaric acid (6700 nM) is -0.0085 ± 0.022; with Hexafluoroglutaric acid (20000 nM), -0.002 ± 0.021; with Hexafluoroglutaric acid (60000 nM), 0.0165 ± 0.011; in assay [1] (6700 nM), -0.0075 ± 0.0092; in assay [1] (20000 nM), -0.005 ± 0.0042; in assay [1] (60000 nM) it was 0.0015 ± 0.005. Besides, the figures for the “level (log10)” value in assay [2] (6700 nM) and in assay [2] (20000 nM) were 0.0195 ± 0.022 and 0.0135 ± 0.019, respectively.
